“Also recorded” adds a separate entry of the source. Like-named read-outs stand apart in the source and are kept apart here. Ends that are not written are not given here.
Tests used:
SARS-CoV-2 M^pro [1] = target: T1, SARS-CoV-2 M^pro (Severe acute respiratory syndrome coronavirus 2, UniProt P0DTD1); experiment: biochemical; type: biochemical; set-up: The main protease (M^pro) of SARS-CoV-2; made in house
SARS-CoV-2 M^pro [2] = target: T1, SARS-CoV-2 M^pro; settings: cited from earlier work
SARS-CoV-2 M^pro [3] = target: T1, SARS-CoV-2 M^pro; type: biochemical; set-up: The main protease (M^pro) of SARS-CoV-2; made in house; settings: for depletion of s01 in presence of inhibitor: pH 6.9
SARS-CoV-2 M^pro [4] = target: T1, SARS-CoV-2 M^pro; type: biochemical; set-up: The main protease (M^pro) of SARS-CoV-2; made in house
SARS-CoV-2 M^pro [5] = target: T1, SARS-CoV-2 M^pro; experiment: biochemical; set-up: The main protease (M^pro) of SARS-CoV-2; made in house; settings: for Hill slope: pH 7.5
SARS-CoV M^pro = settings: cited from earlier work
SARS-CoV-2 M^pro [6] = target: T1, SARS-CoV-2 M^pro
SARS-CoV-2 M^pro [7] = target: T1, SARS-CoV-2 M^pro; settings: pH 7.5
M^pro dimer = type: binding, SARS-CoV-2; settings: pH 6.9

Molecule	mode of inhibition (SARS-CoV-2 M^pro [1])	mode of inhibition (in words) (SARS-CoV-2 M^pro [2])	IC50 ratio R (SARS-CoV-2 M^pro [1])	IC50 (SARS-CoV-2 M^pro [1]; IC50 at [S] = 2 µM)	IC50 (SARS-CoV-2 M^pro [1]; IC50 at [S] = 10 µM)	IC50 (SARS-CoV-2 M^pro [1]; IC50 at [S] = 20 µM)	IC50 (SARS-CoV-2 M^pro [1]; IC50 at [S] = 40 µM)	depletion of s01 in presence of inhibitor (SARS-CoV-2 M^pro [3])	cleavage products by LCMS (SARS-CoV-2 M^pro [4])	IC50 (SARS-CoV-2 M^pro [5])	Hill slope (SARS-CoV-2 M^pro [5])	M^pro dimer/s01-cleavage product complexes in presence of inhibitor (SARS-CoV-2 M^pro [3])	turnover by SARS-CoV M^pro (in words) (SARS-CoV M^pro)	turnover (fast/medium/slow) (SARS-CoV-2 M^pro [6])	substrate ion depletion after 12 min (SARS-CoV-2 M^pro [6]; pH 6.9)	turnover / cleavage (in words) (SARS-CoV-2 M^pro [7])	complexes with M^pro dimer after 1 min (M^pro dimer)	substrate ion depletion after 1 min (SARS-CoV-2 M^pro [6]; pH 6.9)	substrate ion depletion after 6 min (SARS-CoV-2 M^pro [6]; pH 6.9)	relative catalytic efficiency with SARS-CoV M^pro (in words) (SARS-CoV M^pro)
O=c1c2ccccc2[se]n1-c1ccccc1 [Ebselen]	did not support competitive inhibition	reacts multiple times with M^pro; also recorded: complex mode of inhibition	–	–	–	–	–	–	–	–	–	–	–	–	–	–	–	–	–	–
LTINWQKYFNT-NH2 [p15]	competitive inhibition	–	4.56	8.26 ± 0.06 µM	12 ± 0.34 µM	18.83 ± 0.18 µM	37.7 ± 2.02 µM	70%	not observed	5.31 ± 1.08 µM	1.17 ± 0.16	–	–	–	–	–	–	–	–	–
KYLTWQNSQIN-NH2 [p13]	competitive inhibition	–	–	2.97 ± 0.21 µM	4.28 ± 0.8 µM	6.77 ± 0.46 µM	18.1 ± 0.96 µM	91%	not observed	–	–	the abundance of these complexes was lower than the abundance of M^pro/p13 complexes	–	–	–	–	–	–	–	–
REPMLQ↓SADAQ [s07]	–	–	–	–	–	–	–	–	–	–	–	–	slow turnover	slow	below 50%	Slow turnover	only M^pro complexes with intact substrates were observed	–	–	–
WFTLKQYWQTN-NH2 [p16]	competitive inhibition	–	4.85	4.79 ± 0.08 µM	6.66 ± 0.41 µM	10.4 ± 0.53 µM	23.2 ± 0.42 µM	78%	not observed	3.76 ± 0.51 µM	1.19 ± 0.16	–	–	–	–	–	–	–	–	–
FYPKLQ↓SSQAW [s11]	–	–	–	–	–	–	–	–	–	–	–	–	medium turnover	fast	–	next preferred substrate for catalysis	complexes of the M^pro dimer and the cleavage products were observed	> 70%	> 90%	–
KYTFWQYSQFY-NH2 [p12]	competitive inhibition	–	3.61	4.53 ± 0.9 µM	4.99 ± 0.22 µM	7.49 ± 0.04 µM	16.3 ± 0.52 µM	95%	not observed	5.36 ± 2.17 µM	1.25 ± 0.06	–	–	–	–	–	–	–	–	–
SGVTFQ↓SAVKR [s02]	–	–	–	–	–	–	–	–	–	–	–	–	fast turnover	medium	> 90%	hydrolysed less efficiently than s11	complexes of the M^pro dimer and the cleavage products were observed	–	> 70%	highest relative efficiencies
